# Measured values reported in patent publication US8445684B2, “Nicotinic acetylcholine receptor ligands and the uses thereof” (PsycoGenics Inc., priority 2008, dated 2013).
# Several values for one entry are separate records, joined by “and”; a condition that tells them apart may be missing. Equal values may be shown once. Marks after values point to notes of the source that are not given here.
# Tests used:
# [1] = target: T1, α2β2 nicotinic receptor (Rattus norvegicus, UniProt P12389+P12390); assay: biochemical; type: binding
# T1 construct: expressed in transfected cells; host or cells: stably transfected cell lines (e.g., HEK293, COS, CHO, NIH3T3)
# Protocol: (§1) All binding assays were performed according to procedures set forth in the University of North Carolina at Chapel Hill National Institute of Mental Health Psychoactive Drug Screening Program Assay Protocol Book (pp. 50-54; PI: Bryan L. Roth MD, PhD).
# (§2) Nicotinic receptors: α2β2, α2β4, α3β2, α3β4, α4β2, α4β4, endogenous α4β2. Assay buffer: 50 mM Tris-HCl, pH 7.4. Membrane fraction source: Stably transfected cell lines (e.g., HEK293, COS, CHO, NIH3T3) (α2β2, α2β4, α3β2, α3β4, α4β2, α4β4) or rat forebrain (α4β2).
# (§3) Aliquots (50 μl) of radioligand were dispensed into the wells of a 96-well plate containing 100 μl of assay buffer. Then, duplicate 50-μl aliquots of the test and reference compound dilutions were added.
# (§4) Finally, crude membrane fractions of cells expressing recombinant target (prepared from 10-cm plates by harvesting PBS-rinsed monolayers, resuspending and lysing in chilled, hypotonic 50 mM Tris-HCl, pH 7.4, centrifuging at 20,000×g, decanting the supernatant and storing at −80° C.; typically, one 10-cm plate provides sufficient material for 24 wells) were resuspended in 3 ml of chilled assay buffer and homogenized by several passages through a 26 gauge needle, then 50 μl were dispensed into each well.
# (§5) The 250-μl reactions were incubated at room temperature and shielded from light (to prevent photolysis of light-sensitive ligands) for 4 hours, then harvested by rapid filtration onto Whatman GF/B glass fiber filters pre-soaked with 0.5% polyethyleneimine using a 96-well Brandel harvester. Four rapid 500-μl washes were performed with chilled Standard Binding Buffer to reduce non-specific binding. Filters were placed in 6-ml scintillation tubes and allowed to dry overnight. The next day, 4 ml of EcoScint scintillation cocktail (National Diagnostics) were added to each tube. The tubes were capped, labeled, and counted by liquid scintillation counting.
# (§6) Raw data (dpm) representing total radioligand binding (i.e., specific+non-specific binding) were plotted as a function of the logarithm of the molar concentration of the competitor (i.e., test or reference compound).
# [2] = target: T2, α2β4 nicotinic receptor (Rattus norvegicus, UniProt P12389+P12392); assay: biochemical; type: binding
# T2 construct: expressed in transfected cells; host or cells: stably transfected cell lines (e.g., HEK293, COS, CHO, NIH3T3)
# Protocol: as §1, §2, §3, §4, §5, §6
# [3] = target: T3, α3β2 nicotinic receptor (Rattus norvegicus, UniProt P04757+P12390); assay: biochemical; type: binding
# T3 construct: expressed in transfected cells; host or cells: stably transfected cell lines (e.g., HEK293, COS, CHO, NIH3T3)
# Protocol: as §1, §2, §3, §4, §5, §6
# [4] = target: T4, α4β2 nicotinic receptor (Rattus norvegicus, UniProt P09483+P12390); assay: biochemical; type: binding
# T4 construct: expressed in transfected cells; host or cells: stably transfected cell lines (e.g., HEK293, COS, CHO, NIH3T3)
# Protocol: as §1, §2, §3, §4, §5, §6
# [5] = target: T5, α4β2* (endogenous α4β2, rat forebrain) (Rattus norvegicus, UniProt P09483+P12390); assay: biochemical; type: binding
# T5 construct: from tissue; host or cells: rat forebrain
# Protocol: as §1, §2, §3, §4, §5, §6
# [6] = target: T6, α4β4 nicotinic receptor (Rattus norvegicus, UniProt P09483+P12392); assay: biochemical; type: binding
# T6 construct: expressed in transfected cells; host or cells: stably transfected cell lines (e.g., HEK293, COS, CHO, NIH3T3)
# Protocol: as §1, §2, §3, §4, §5, §6
# [7] = target: T7, α3β4 nicotinic receptor (Rattus norvegicus, UniProt P04757+P12392); assay: biochemical; type: binding
# T7 construct: expressed in transfected cells; host or cells: stably transfected cell lines (e.g., HEK293, COS, CHO, NIH3T3)
# Protocol: as §1, §2, §3, §4, §5, §6
# [8] = test system: male Balb/cJ mice; assay: Forced swim test in mice; type: in vivo
# Protocol: Subjects. The subjects were male Balb/cJ mice obtained from Jackson Laboratory, Bar Harbor, Me. Mice were housed 4 per cage under controlled conditions of temperature, relative humidity and light-dark cycle with free access to food and water.
# Procedures. […] Mice were individually placed into clear glass cylinders (i.e., 15 cm tall×10 cm wide, 1 L beakers) containing 23±1° C. water 12 cm deep (approximately 800 mL). The time the animal spent immobile was recorded over a 6 min trial. Immobility was described as the postural position of floating in the water.
# Drugs. […] The mice were injected intraperitoneally (i.p.) 30 minutes before the start of the test. In another set of experiments, the test compounds were administered orally (p.o.) 30 minutes before the start of the test.
# Statistics. The length of time spent floating was analyzed by Analysis of Variance (ANOVA) with dose of drug as the between-subject factor and time spent immobile across the 6 min test as the dependent variable. Post-hoc comparisons between the treatment groups and control group were made using Fisher's PLSD test. A significance level of 5% was used throughout.
# T4 sequence (P09483 31-630): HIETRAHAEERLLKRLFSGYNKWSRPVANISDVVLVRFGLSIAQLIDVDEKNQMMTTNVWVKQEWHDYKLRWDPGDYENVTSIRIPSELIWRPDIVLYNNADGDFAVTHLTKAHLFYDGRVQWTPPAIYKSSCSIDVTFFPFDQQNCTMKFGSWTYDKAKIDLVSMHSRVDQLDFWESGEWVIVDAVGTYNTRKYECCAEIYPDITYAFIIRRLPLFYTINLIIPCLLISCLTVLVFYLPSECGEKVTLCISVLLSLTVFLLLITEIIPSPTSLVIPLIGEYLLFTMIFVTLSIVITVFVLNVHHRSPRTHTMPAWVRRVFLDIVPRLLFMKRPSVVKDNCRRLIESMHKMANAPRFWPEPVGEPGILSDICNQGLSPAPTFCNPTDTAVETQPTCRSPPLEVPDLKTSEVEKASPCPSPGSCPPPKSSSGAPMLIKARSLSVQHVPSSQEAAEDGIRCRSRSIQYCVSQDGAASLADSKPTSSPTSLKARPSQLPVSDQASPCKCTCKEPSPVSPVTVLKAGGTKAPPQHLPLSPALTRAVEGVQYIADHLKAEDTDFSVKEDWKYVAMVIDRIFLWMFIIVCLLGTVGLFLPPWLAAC
# T4 sequence (P12390 25-500): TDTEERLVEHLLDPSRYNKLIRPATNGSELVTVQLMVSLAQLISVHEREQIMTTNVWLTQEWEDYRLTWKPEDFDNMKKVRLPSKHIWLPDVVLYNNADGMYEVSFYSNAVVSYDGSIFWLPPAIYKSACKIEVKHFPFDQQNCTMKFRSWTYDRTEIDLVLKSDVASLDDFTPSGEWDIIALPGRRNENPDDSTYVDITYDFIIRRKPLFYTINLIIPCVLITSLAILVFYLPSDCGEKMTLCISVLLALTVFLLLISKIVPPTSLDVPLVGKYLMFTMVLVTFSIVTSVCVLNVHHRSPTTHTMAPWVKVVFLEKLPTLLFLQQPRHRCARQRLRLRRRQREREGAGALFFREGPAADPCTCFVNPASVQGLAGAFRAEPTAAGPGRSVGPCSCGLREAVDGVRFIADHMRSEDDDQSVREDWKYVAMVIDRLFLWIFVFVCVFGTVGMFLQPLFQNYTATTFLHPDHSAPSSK
# T5 sequence (P09483 31-630): as the sequence (P09483 31-630) above
# T5 sequence (P12390 25-500): as the sequence (P12390 25-500) above
# T2 sequence (P12392 21-495): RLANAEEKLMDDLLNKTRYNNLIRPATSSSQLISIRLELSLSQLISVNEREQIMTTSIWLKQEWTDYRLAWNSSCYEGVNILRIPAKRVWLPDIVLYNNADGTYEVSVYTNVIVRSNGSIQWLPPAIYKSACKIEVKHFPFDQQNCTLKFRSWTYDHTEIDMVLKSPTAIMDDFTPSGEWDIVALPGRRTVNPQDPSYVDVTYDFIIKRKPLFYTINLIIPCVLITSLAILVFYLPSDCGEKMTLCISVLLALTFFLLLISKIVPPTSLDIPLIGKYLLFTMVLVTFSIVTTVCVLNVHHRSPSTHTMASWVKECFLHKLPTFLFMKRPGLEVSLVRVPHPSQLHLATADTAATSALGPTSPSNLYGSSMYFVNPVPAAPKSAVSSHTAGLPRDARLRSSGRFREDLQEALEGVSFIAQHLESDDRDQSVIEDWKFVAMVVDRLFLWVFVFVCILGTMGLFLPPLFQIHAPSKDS
# T2 sequence (P12389 28-511): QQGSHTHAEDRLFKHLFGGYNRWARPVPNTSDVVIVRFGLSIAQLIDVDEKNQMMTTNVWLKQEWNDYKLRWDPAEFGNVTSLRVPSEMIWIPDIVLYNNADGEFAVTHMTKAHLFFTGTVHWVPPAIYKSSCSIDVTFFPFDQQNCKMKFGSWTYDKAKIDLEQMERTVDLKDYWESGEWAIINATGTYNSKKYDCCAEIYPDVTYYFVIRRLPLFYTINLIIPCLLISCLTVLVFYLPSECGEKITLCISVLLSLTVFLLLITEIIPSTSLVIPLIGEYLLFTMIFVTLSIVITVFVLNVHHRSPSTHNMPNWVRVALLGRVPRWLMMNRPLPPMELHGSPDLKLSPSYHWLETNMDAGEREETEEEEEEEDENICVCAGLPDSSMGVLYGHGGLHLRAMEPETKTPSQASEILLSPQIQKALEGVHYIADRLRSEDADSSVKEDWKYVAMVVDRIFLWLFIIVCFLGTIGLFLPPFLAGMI
# T3 sequence (P12390 25-500): as the sequence (P12390 25-500) above
# T3 sequence (P04757 26-499): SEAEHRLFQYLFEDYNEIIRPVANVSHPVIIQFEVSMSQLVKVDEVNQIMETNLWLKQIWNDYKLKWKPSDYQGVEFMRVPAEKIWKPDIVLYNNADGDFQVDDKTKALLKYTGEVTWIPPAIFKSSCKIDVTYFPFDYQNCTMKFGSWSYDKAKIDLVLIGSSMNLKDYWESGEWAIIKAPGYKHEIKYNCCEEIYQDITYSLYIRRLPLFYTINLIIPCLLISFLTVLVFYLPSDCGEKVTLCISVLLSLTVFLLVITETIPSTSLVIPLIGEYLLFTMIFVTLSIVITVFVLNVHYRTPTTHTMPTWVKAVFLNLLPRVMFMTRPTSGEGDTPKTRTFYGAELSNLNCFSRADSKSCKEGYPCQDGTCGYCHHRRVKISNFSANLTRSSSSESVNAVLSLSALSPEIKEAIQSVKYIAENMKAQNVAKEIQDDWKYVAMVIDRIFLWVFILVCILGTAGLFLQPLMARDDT
# T1 sequence (P12390 25-500): as the sequence (P12390 25-500) above
# T1 sequence (P12389 28-511): as the sequence (P12389 28-511) above
# T6 sequence (P09483 31-630): as the sequence (P09483 31-630) above
# T6 sequence (P12392 21-495): as the sequence (P12392 21-495) above
# T7 sequence (P04757 26-499): as the sequence (P04757 26-499) above
# T7 sequence (P12392 21-495): as the sequence (P12392 21-495) above
smiles,measurement,setting,value
OCCCC[C@H]1C[C@@H]1c1cncc(OC[C@@H]2CCN2)c1,Ki,[1],0.6 nM
same,Ki,[2],120 nM
same,Ki,[3],6.5 nM
same,Ki,[4],0.5 nM
same,Ki,[5],1.4 nM
same,Ki,[6],240 nM
FCC[C@H]1C[C@@H]1c1cncc(OC[C@@H]2CCN2)c1,Ki,[1],6.4 nM
same,Ki,[2],660 nM
same,Ki,[3],34 nM
same,Ki,[7],> 10000 nM
same,Ki,[4],1 nM
same,Ki,[5],11 nM
same,Ki,[6],1300 nM
"OCCCCC#Cc1cncc(OC[C@@H]2CCN2)c1 [AMOP-H-OH, reference compound]",effect in the forced swim test as indicated by a reduction in immobility time,"[8]; mouse, in vivo, ip",positive effects
"OCC[C@H]1C[C@@H]1c1cncc(OC[C@@H]2CCN2)c1 [Example 2, 2-[(1R,2S)-2-[5-[(2(S)-Azetidinyl)methoxy]-3-pyridyl]cyclopropyl]ethanol]",effect in the forced swim test as indicated by a reduction in immobility time,"[8]; mouse, in vivo, ip",positive effects
"OCCCc1cccc(-c2cncc(OC[C@@H]3CCN3)c2)c1 [Example 15c, 3-[3-[5-[(2(S)-Azetidinyl)methoxy]-3-pyridyl]phenyl]-1-propanol]",reduction in immobility time compared to vehicle,"[8]; mouse, in vivo",24.5 s
same,effect in the forced swim test as indicated by a reduction in immobility time,"[8]; mouse, in vivo, ip",positive effects
same,Average Immobility Time,"[8]; mouse, in vivo, ip, 5 mg/kg",110.6 s
same,Average Immobility Time,"[8]; mouse, in vivo, ip, 10 mg/kg",105.1** seconds and 85.3** seconds
same,Average Immobility Time,"[8]; mouse, in vivo, ip, 20 mg/kg",49.7** seconds
"CN[C@H]1CC[C@@H](c2ccc(Cl)c(Cl)c2)c2ccccc21 [Sertraline, sertraline, reference compound]",Average Immobility Time,"[8]; Table 2, 20 mg/kg i.p., 30 min before test, 6 min trial, vehicle 126.3, ** = significantly different from vehicle",11.9** seconds
OCC[C@H]1C[C@@H]1c1cncc(OC[C@@H]2CCN2)c1 [drawing 715],Ki,[1],0.9 nM
same,Ki,[2],62 nM
same,Ki,[3],5.1 nM
same,Ki,[7],640 nM
same,Ki,[4],0.3 nM
same,Ki,[5],1.2 nM
